The text below walks through data of patent publication US8664220B2, “Polycyclic compounds as lysophosphatidic acid receptor antagonists” (Amira Pharmaceuticals, Inc., priority 2009, dated 2014).

For orientation: IC50 means the concentration that inhibits the measured activity by half.

For the assay, the target named is T1, human LPA1 (Homo sapiens, UniProt Q92633).
T1 construct: the full-length cDNA for human LPA1 was obtained by PCR of the reverse transcription reaction; expressed in transfected cells
T1 sequence (Q92633 whole entry): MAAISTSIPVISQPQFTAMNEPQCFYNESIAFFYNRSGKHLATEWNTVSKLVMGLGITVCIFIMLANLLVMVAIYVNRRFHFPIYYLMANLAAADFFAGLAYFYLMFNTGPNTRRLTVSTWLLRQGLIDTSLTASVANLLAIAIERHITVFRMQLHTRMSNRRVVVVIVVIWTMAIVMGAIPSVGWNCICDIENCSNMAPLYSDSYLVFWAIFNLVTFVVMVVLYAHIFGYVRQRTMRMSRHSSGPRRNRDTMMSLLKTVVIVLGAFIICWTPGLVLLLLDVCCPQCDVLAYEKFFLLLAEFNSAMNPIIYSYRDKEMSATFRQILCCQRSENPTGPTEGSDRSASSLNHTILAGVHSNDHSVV
As to the kind of experiment: LPA1 calcium flux assay. It counts as cell-based. As to conditions: human LPA1 expressing CHO cells, stimulated with 10 nM LPA; read-out: HLPA1 Ca Flux IC50. The method, boiled down:
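CHO cells stably expressing human LPA1, serum-starved overnight and loaded with Calcium 4 dye in HBSS/20 mM Hepes/0.3% fatty-acid-free HSA, 1 h at 37 °C. Compounds pre-incubated 30 min at room temperature, then 10 nM LPA added; intracellular Ca2+ flux measured and IC50 from titration curves.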
(Calcium flux is commonly read through the fluorescence of an indicator in the cells.)
For the compound `Cc1noc(-c2ccc(-c3ccc(C4(C(=O)O)CC4)cc3)cc2)c1Nc1nnc(Cc2ccccc2)o1` [Compound 1-83, 1-{4′-[4-(5-Benzyl-[1,3,4]oxadiazol-2-ylamino)-3-methyl-isoxazol-5-yl]-biphenyl-4-yl}-cyclopropanecarboxylic acid], the IC50 was less than 300 nM. In the case of `Cc1noc(-c2ccc(-c3ccc(C4(C(=O)O)CC4)cc3)cc2)c1Nc1cccc(Cc2ccccc2F)n1` [Compound 1-84, 1-(4′-{4-[6-(2-Fluoro-benzyl)-pyridin-2-ylamino]-3-methyl-isoxazol-5-yl}-biphenyl-4-yl)-cyclopropanecarboxylic acid] it was less than 300 nM; in that of `Cc1noc(-c2ccc(-c3ccc(C4(C(=O)O)CC4)cc3)cc2)c1Nc1cccc(Cc2cccc(F)c2)n1` [Compound 1-85, 1-(4′-{4-[6-(3-Fluoro-benzyl)-pyridin-2-ylamino]-3-methyl-isoxazol-5-yl}-biphenyl-4-yl)-cyclopropanecarboxylic acid], less than 300 nM; in that of `Cc1noc(-c2ccc(-c3ccc(C4(C(=O)O)CC4)cc3)cc2)c1Nc1cccc(Cc2ccc(F)cc2)n1` [Compound 1-86, 1-(4′-{4-[6-(4-Fluoro-benzyl)-pyridin-2-ylamino]-3-methyl-isoxazol-5-yl}-biphenyl-4-yl)-cyclopropanecarboxylic acid], less than 300 nM. As for `CCOc1ccc(-c2cccc(Nc3c(C)noc3-c3ccc(-c4ccc(C5(C(=O)O)CC5)cc4)cc3)n2)cn1` [Compound 1-87, 1-{4′-[4-(6′-Ethoxy-[2,3]bipyridinyl-6-ylamino)-3-methyl-isoxazol-5-yl]-biphenyl-4-yl}-cyclopropanecarboxylic acid], the figure is 300 to 1000 nM; as for `COc1cccc(-c2cccc(Nc3c(C)noc3-c3ccc(-c4ccc(C5(C(=O)O)CC5)cc4)cc3)n2)c1` [Compound 1-88, 1-(4′-{4-[6-(3-Methoxy-phenyl)-pyridin-2-ylamino]-3-methyl-isoxazol-5-yl}-biphenyl-4-yl)-cyclopropanecarboxylic acid], less than 300 nM; as for `COc1ncccc1-c1cccc(Nc2c(C)noc2-c2ccc(-c3ccc(C4(C(=O)O)CC4)cc3)cc2)c1` [Compound 1-89, 1-(4′-{4-[3-(2-Methoxy-pyridin-3-yl)-phenylamino]-3-methyl-isoxazol-5-yl}-biphenyl-4-yl)-cyclopropanecarboxylic acid], less than 300 nM. As for `Cc1noc(-c2ccc(-c3ccc(C4(C(=O)O)CC4)cc3)cc2)c1Nc1cccc(Cc2ccccc2)c1` [Compound 1-90, 1-{4′-[4-(3-Benzyl-phenylamino)-3-methyl-isoxazol-5-yl]-biphenyl-4-yl}-cyclopropanecarboxylic acid], the figure is less than 300 nM. Regarding `Cc1noc(-c2ccc(-c3ccc(C4(C(=O)O)CC4)cc3)cc2)c1Nc1cccc(-c2ccccc2C#N)n1` [Compound 1-91, 1-(4′-{4-[6-(2-Cyano-phenyl)-pyridin-2-ylamino]-3-methyl-isoxazol-5-yl}-biphenyl-4-yl)-cyclopropanecarboxylic acid], the IC50 is less than 300 nM.

With `COc1ccc(-c2cccc(Nc3c(C)noc3-c3ccc(-c4ccc(C5(C(=O)O)CC5)cc4)cc3)n2)cc1` [Compound 1-92, 1-(4′-{4-[6-(4-Methoxy-phenyl)-pyridin-2-ylamino]-3-methyl-isoxazol-5-yl}-biphenyl-4-yl)-cyclopropanecarboxylic acid], the concentration for half-maximal inhibition (IC50) was less than 300 nM.

As for `Cc1noc(-c2ccc(-c3ccc(C4(C(=O)O)CC4)cc3)cc2)c1Nc1cccc(-c2cccc(F)c2)n1` [Compound 1-93, 1-(4′-{4-[6-(3-Fluoro-phenyl)-pyridin-2-ylamino]-3-methyl-isoxazol-5-yl}-biphenyl-4-yl)-cyclopropanecarboxylic acid], the IC50 was less than 300 nM.

Take `COc1ccccc1-c1cccc(Nc2c(C)noc2-c2ccc(-c3ccc(C4(C(=O)O)CC4)cc3)cc2)n1` [Compound 1-94, 1-(4′-{4-[6-(2-Methoxy-phenyl)-pyridin-2-ylamino]-3-methyl-isoxazol-5-yl}-biphenyl-4-yl)-cyclopropanecarboxylic acid]: the IC50 is less than 300 nM.
